Test results as given in PMC3681751, “Identification of a Novel Antimicrobial Peptide from Human Hepatitis B Virus Core Protein Arginine-Rich Domain (ARD)” (PLoS Pathogens, 2013).
Values after ≈ are worked out from the molar mass of the structure shown. Residues, ends and D or L forms follow the SMILES beside them.

How the values were obtained:
P. aeruginosa NHRI-04 = format: cell-based, Pseudomonas aeruginosa; details: NHRI-04, 3 h
Description: (§1) Clinical isolates of Pseudomonas aeruginosa (NHRI-01, NHRI-02 and NHRI-04) were obtained through the program of Taiwan Surveillance of Antimicrobial Resistance (TSAR), National Health Research Institutes (NHRI), Taiwan. Acinetobacter baumannii (ATCC 17989, ATCC 17978 CR, ATCC19606, ATCC 19606 CR, TCGH 45530 and TCGH 46709) were obtained from Tzu-Chi Buddhist General Hospital (TCGH) in Taiwan, and clinical isolates (TCGH 45530 and TCGH 46709) were identified using the Vitek system (Biomerieux Vitek, Inc., Hazelwood, MO, USA). A. baumannii is defined as multidrug-resistant, when the organism is resistant to piperacillin, piperacillin-tazobactam, ampicillin/sulbactam, imipenem, ceftazidime, gentamicin, amikacin, tetracycline, chloramphenicol, ciprofloxacin, and cotrimoxazole. Susceptibility to colistin was determined using the broth-dilution method, in accordance with the guidelines of the Clinical and Laboratory Standards Institute (CLSI).
(§2) All peptides were purchased from Yao-Hong Biotechnology Inc. (Taipei, Taiwan). Vendors provided data of peptide characterizations, including HPLC and Mass (data not shown). Antimicrobial activity was determined as described with some modifications as detailed below. Bacteria were grown overnight in Mueller–Hinton broth (Difco) at 37°C, and during the mid-logarithmic phase, bacteria were diluted to 10^6 CFU (colony formation unit)/ml in phosphate buffer (10 mM sodium phosphate and 50 mM sodium chloride, pH 7.2). Peptides were serially diluted in the same buffer. Fifty microliter (µl) of bacteria was mixed with fifty µl of peptides at varying concentrations followed by incubation at 37°C for 3 hours without shaking. At the end of incubation, bacteria were placed on Mueller-Hinton broth agar plates, and allowed growth at 37°C overnight for measurement of minimal bactericidal concentration (MBC). […] All peptides were tested in triplicate.

P. aeruginosa NHRI-02 = format: cell-based, Pseudomonas aeruginosa; details: NHRI-02, 3 h
Description: as §1, §2

P. aeruginosa NHRI-01 = format: cell-based, Pseudomonas aeruginosa; details: colistin-resistant P. aeruginosa of Table 2
Description: as §1, §2

E. coli = experiment: Killing kinetics; format: cell-based, Escherichia coli; details: 4 µM peptide (1×MBC), 37°C, triplicates
Description: For measurement of killing kinetics, bacteria and peptides were prepared as described above. Fifty µl of bacteria were mixed with fifty µl of peptides at the concentrations corresponding to MBC and were incubated at 37°C. At the indicated time, bacteria were serially diluted and placed on Mueller-Hinton broth agar plates for the viability measurement.

[1] = tested on: K. pneumonia (ATCC 13884); format: cell-based, Klebsiella pneumoniae; details: 3 h at 37°C in phosphate buffer pH 7.2; triplicate
ICR mice = experiment: Acute in vivo toxicity; parameters: species or system mouse; details: three-week old male ICR mice, 7 days, n = 5
Description: Three-week old male ICR mice (19 to 21 g) were purchased from BioLASCO (Taiwan). Overnight culture of bacteria in BHI broth (Difco) was subcultured in fresh BHI broth to log phase. Inoculums were diluted in BHI broth to indicated densities. To test the acute toxicity of ARD peptide in vivo, ICR male mice were inoculated intraperitoneally (i.p.) with 10 and 20 mg/kg HBc147-183 in PBS, respectively. Each group contained 5 mice. After peptide injection, the number of dead mice was recorded daily for 7 days post-injection. To test the antimicrobial activity of the ARD peptide in vivo, all mice were inoculated i.p. with Staphylococcus aureus ATCC 19636 (4×10^6 CFU/mouse) in BHI broth. Peptide HBc147-183 (10 mg/kg) was administered i.p. at 1, 1.5 and 2 hours post-inoculation. PBS (10 ml/kg) control was administered at 1 hour post-inoculation. […] Mortality was monitored daily for 7 days post-inoculation. […] The mice were anesthetized first before transferring to the IVIS imaging system (IVIS spectrum), and luminescence was measured with an exposure time of 1 minutes or less. The image system measured the number of photons and translated the data to false color images that depicted the region of strong luminescence with red, moderate luminescence with yellow and green, and mild luminescence with blue. […] Total flux (RLU) of region of interest (ROI) was quantified by the IVIS imaging software.

CC(C)[C@H](NC(=O)[C@@H](NC(=O)[C@@H](N)[C@@H](C)O)C(C)C)C(=O)N[C@@H](CCCNC(=N)N)C(=O)N[C@@H](CCCNC(=N)N)C(=O)N[C@@H](CCCNC(=N)N)C(=O)NCC(=O)N[C@@H](CCCNC(=N)N)C(=O)N[C@@H](CO)C(=O)N1CCC[C@H]1C(=O)N[C@@H](CCCNC(=N)N)C(=O)N[C@@H](CCCNC(=N)N)C(=O)N[C@@H](CCCNC(=N)N)C(=O)N[C@H](C(=O)N1CCC[C@H]1C(=O)N[C@@H](CO)C(=O)N1CCC[C@H]1C(=O)N[C@@H](CCCNC(=N)N)C(=O)N[C@@H](CCCNC(=N)N)C(=O)N[C@@H](CCCNC(=N)N)C(=O)N[C@@H](CCCNC(=N)N)C(=O)N[C@@H](CO)C(=O)N[C@@H](CCC(N)=O)C(=O)N[C@@H](CO)C(=O)N1CCC[C@H]1C(=O)N[C@@H](CCCNC(=N)N)C(=O)N[C@@H](CCCNC(=N)N)C(=O)N[C@@H](CCCNC(=N)N)C(=O)N[C@@H](CCCNC(=N)N)C(=O)N[C@@H](CO)C(=O)N[C@@H](CCC(N)=O)C(=O)N[C@@H](CO)C(=O)N[C@@H](CCCNC(=N)N)C(=O)N[C@@H](CCC(=O)O)C(=O)N[C@@H](CO)C(=O)N[C@@H](CCC(N)=O)C(=O)N[C@@H](CS)C(=O)O)[C@@H](C)O [HBc147-183] (H-TVVRRRGRSPRRRTPSPRRRRSQSPRRRRSQSRESQC-OH; N-terminus and C-terminus assumed)
MBC (P. aeruginosa NHRI-04): 18.36 µg/mL (≈ 4 µM) | MBC against colistin-sensitive P. aeruginosa (P. aeruginosa NHRI-02): 4 µM (≈ 18.4 µg/mL) | MBC against colistin-resistant P. aeruginosa (P. aeruginosa NHRI-01): > 16 µM | Time to complete killing (E. coli): 180 min | Antimicrobial activity, MBC [1]: 9.18 µg/mL | Survival after peptide injection (in vivo toxicity) (ICR mice; 10 mg/kg i.p.): All mice were alive | Survival after peptide injection (in vivo toxicity) (ICR mice; 20 mg/kg i.p.): All mice were alive
